Blank lines part the entries; values can stand above or below the compound they belong to.
What was measured:
[1] = molecular target: Transient receptor potential cation channel subfamily V member 1 (Rattus norvegicus, UniProt O35433); assay: Inhibition of binding to rat transient receptor potential vanilloid 1 receptor
[2] = molecular target: Transient receptor potential cation channel subfamily V member 1 (Homo sapiens, UniProt Q8NER1); assay: Inhibition of binding to human vanilloid receptor subtype VR1
[3] = Half life in rat; assay type: ADME; settings: in vivo
[4] = Plasma protein binding in human; assay type: ADME, cell-free; settings: read-out: Plasma protein binding (converted)
[5] = Maximum concentration in rat; assay type: ADME, organism-based; settings: in vivo
[6] = Volume of distribution in rat; assay type: ADME, organism-based; settings: in vivo, read-out: Vbeta
[7] = Plasma protein binding in rat; assay type: ADME, cell-free; settings: read-out: Plasma protein binding (converted)
Rattus norvegicus = organism: Rattus norvegicus; assay: Concentration required to reduce thermal hyperalgesia in the complete Freund's adjuvant (CFA) model of chronic inflammatory pain; assay type: functional

Transient receptor potential cation channel subfamily V member 1 (Homo sapiens, UniProt Q8NER1), sequence (Q8NER1 whole entry): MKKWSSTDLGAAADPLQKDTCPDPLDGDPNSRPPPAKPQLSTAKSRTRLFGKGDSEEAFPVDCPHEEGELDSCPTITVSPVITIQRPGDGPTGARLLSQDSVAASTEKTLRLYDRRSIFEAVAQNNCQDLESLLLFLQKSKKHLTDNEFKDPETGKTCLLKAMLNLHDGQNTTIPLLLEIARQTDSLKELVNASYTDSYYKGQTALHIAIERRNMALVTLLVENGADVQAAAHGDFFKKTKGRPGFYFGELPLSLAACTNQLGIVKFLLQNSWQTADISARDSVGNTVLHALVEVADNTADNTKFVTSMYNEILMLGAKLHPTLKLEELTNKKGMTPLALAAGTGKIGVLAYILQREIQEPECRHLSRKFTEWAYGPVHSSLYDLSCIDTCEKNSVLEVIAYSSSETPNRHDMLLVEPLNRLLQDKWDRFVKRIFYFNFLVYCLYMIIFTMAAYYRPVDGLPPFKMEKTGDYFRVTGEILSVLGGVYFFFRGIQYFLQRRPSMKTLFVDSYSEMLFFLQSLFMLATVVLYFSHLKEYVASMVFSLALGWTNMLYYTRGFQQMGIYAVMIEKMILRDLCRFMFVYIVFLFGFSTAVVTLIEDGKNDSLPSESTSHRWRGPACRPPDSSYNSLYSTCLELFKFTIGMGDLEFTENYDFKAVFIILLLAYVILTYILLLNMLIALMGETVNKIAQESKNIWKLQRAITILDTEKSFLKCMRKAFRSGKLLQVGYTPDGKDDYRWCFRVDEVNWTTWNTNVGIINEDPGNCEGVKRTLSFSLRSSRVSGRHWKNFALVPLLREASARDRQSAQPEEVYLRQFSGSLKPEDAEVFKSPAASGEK
Transient receptor potential cation channel subfamily V member 1 (Rattus norvegicus, UniProt O35433), sequence (O35433 whole entry): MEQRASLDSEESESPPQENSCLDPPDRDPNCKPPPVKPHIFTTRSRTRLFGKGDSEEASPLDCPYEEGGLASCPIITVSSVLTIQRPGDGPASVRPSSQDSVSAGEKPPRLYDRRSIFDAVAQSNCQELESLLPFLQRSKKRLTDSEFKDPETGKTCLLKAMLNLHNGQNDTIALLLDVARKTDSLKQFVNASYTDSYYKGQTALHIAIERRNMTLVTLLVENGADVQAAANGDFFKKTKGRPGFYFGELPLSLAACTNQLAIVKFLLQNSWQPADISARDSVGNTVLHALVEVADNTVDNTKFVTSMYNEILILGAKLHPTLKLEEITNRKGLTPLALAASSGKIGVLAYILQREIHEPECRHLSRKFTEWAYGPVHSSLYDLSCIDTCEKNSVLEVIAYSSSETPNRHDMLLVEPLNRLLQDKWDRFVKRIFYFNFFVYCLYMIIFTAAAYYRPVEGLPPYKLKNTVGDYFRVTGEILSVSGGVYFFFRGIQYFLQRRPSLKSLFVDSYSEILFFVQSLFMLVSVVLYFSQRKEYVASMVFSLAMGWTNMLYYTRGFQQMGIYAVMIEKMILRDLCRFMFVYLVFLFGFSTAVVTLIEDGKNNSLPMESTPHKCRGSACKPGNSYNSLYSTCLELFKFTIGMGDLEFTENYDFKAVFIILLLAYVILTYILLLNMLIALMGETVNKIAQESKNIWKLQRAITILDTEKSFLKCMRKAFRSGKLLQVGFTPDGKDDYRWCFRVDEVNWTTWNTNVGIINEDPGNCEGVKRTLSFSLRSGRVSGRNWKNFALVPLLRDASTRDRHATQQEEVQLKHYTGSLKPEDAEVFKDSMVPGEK

IC50 [1]: 24 nM | IC50 [2]: 4 nM | half-life [3]: 36 min | fraction unbound [4]: 0.02 | Cmax [5]: 3000 ng/mL | Vd [6]: 0.6 L/kg | fraction unbound [7]: 0.029
SMILES: O=C(NCc1ccc(C(F)(F)F)cc1)Nc1cccc2cnccc12
ED50 (Rattus norvegicus): 30 µmol/kg

IC50 [2]: 22 nM
SMILES: CSc1cccc(NC(=O)Nc2cccc3ccc(O)cc23)c1

IC50 [2]: 20 nM
SMILES: O=C(NCCc1cccc(C(F)(F)F)c1)Nc1cccc2cnccc12

IC50 [2]: 51 nM
SMILES: O=C(NCc1cccc(C(F)(F)F)c1)Nc1cccc2cnccc12

— ChEMBL document CHEMBL1142650, “Novel transient receptor potential vanilloid 1 receptor antagonists for the treatment of pain: structure-activity relationships for ureas with quinoline, isoquinoline, quinazoline, phthalazine, quinoxaline, and cinnoline moieties” (J Med Chem, 2005)
